Structures are written as SMILES.

Broadly, the EC50 is the midpoint of the concentration-response curve.

In the first assay the test system is HBV (encapsidated HBV DNA, HepG2.2.15 cells). The assay can be described thus: HBV replication inhibition assay, BDNA assay in HepG2.2.15 cells. Particulars: Activity in BDNA-assay. It is filed as cell-based. An outline of the steps: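 Encapsidated HBV DNA in DNase-treated, proteinase K-lysed supernatant was measured by branched DNA after 6 days' compound exposure, refreshed on day 3, of HepG2.2.15 cells in 0.5% DMSO. Signals normalized to DMSO-treated wells; EC50 from nonlinear regression of inhibition against log concentration.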
Consider `C[C@@H]1Cc2nn3c(c2CN1C(=O)Nc1ccc(F)c(Cl)c1)C(=O)N(C)CC(C)(F)C3` (single isomer, unassigned) [Compound 079_D2, (3R,8S*)—N-(3-chloro-4-fluorophenyl)-8-fluoro-3,8,10-trimethyl-11-oxo-1,3,4,7,8,9,10,11-octahydro-2H-pyrido[4′,3′:3,4]pyrazolo[1,5-a][1,4]diazepine-2-carboxamide], for which the 50% effective concentration (EC50) is 1 to 100 nM.
On to `CCC(O)C1CN(C)C(=O)c2c3c(nn2C1)CCN(C(=O)Nc1ccc(F)c(C#N)c1F)C3` (single isomer, unassigned) [Compound 098_E3, (S*)—N-(3-cyano-2,4-difluorophenyl)-8-((S*)-1-hydroxypropyl)-10-methyl-11-oxo-1,3,4,7,8,9,10,11-octahydro-2H-pyrido[4′,3′:3,4]pyrazolo[1,5-a][1,4]diazepine-2-carboxamide], for which the EC50 fell in the range of 100 to 500 nM.
On to `CCC(O)C1CN(C)C(=O)c2c3c(nn2C1)CCN(C(=O)Nc1ccc(F)c(C#N)c1)C3` (single isomer, unassigned) [Compound 097_E4, (R*)—N-(3-cyano-4-fluorophenyl)-8-((R*)-1-hydroxypropyl)-10-methyl-11-oxo-1,3,4,7,8,9,10,11-octahydro-2H-pyrido[4′,3′: 3,4]pyrazolo[1,5-a][1,4]diazepine-2-carboxamide], for which the EC50 lay in the range of 1 to 100 nM.
Same read-out and setting: the value for `CN1CC(CNCC(F)F)Cn2nc3c(c2C1=O)CN(C(=O)Nc1ccc(F)c(Br)c1F)CC3` (single isomer, unassigned) [Compound 129_E1, (R*)—N-(3-bromo-2,4-difluorophenyl)-8-(((2,2-difluoroethyl)amino)methyl)-10-methyl-11-oxo-1,3,4,7,8,9,10,11-octahydro-2H-pyrido[4′,3′:3,4]pyrazolo[1,5-a][1,4]diazepine-2-carboxamide] was 100 to 500 nM; that for `CN1CC(CNCC(F)F)Cn2nc3c(c2C1=O)CN(C(=O)Nc1ccc(F)c(Br)c1)CC3` (single isomer, unassigned) [Compound 130_E2, (S*)—N-(3-bromo-4-fluorophenyl)-8-(((2,2-difluoroethyl)amino)methyl)-10-methyl-11-oxo-1,3,4,7,8,9,10,11-octahydro-2H-pyrido[4′,3′:3,4]pyrazolo[1,5-a][1,4]diazepine-2-carboxamide] was 1 to 100 nM; that for `CN1CC(CNCC(F)F)Cn2nc3c(c2C1=O)CN(C(=O)Nc1ccc(F)c(Cl)c1F)CC3` (single isomer, unassigned) [Compound 128_E2, (S*)—N-(3-chloro-2,4-difluorophenyl)-8-(((2,2-difluoroethyl)amino)methyl)-10-methyl-11-oxo-1,3,4,7,8,9,10,11-octahydro-2H-pyrido[4′,3′:3,4]pyrazolo[1,5-a][1,4]diazepine-2-carboxamide] was 1 to 100 nM.
For the compound `CCC(O)C1CN(C)C(=O)c2c3c(nn2C1)CC(C)N(C(=O)Nc1ccc(F)c(C#N)c1)C3` [Compound 108_D2, (3R,8R*)—N-(3-cyano-4-fluorophenyl)-8-((R)-1-hydroxypropyl)-3,10-dimethyl-11-oxo-1,3,4,7,8,9,10,11-octahydro-2H-pyrido[4′,3′:3,4]pyrazolo[1,5-a][1,4]diazepine-2-carboxamide], the half-maximal effective concentration (EC50) lay within 100 to 500 nM.
On the same count and under the same terms, the value for `C[C@@H]1Cc2nn3c(c2CN1C(=O)Nc1ccc(F)c(C#N)c1F)C(=O)N(C)CC(CO)C3` (single isomer, unassigned) [Compound 088_D2, (3R,8R*)—N-(3-cyano-2,4-difluorophenyl)-8-(hydroxymethyl)-3,10-dimethyl-11-oxo-1,3,4,7,8,9,10,11-octahydro-2H-pyrido[4′,3′:3,4]pyrazolo[1,5-a][1,4]diazepine-2-carboxamide] was 1 to 100 nM.

Staying with this assay, now noted: Hepatitis B virus, HepG2.2.15, Activity in BDNA-assay.
On to `CN1CC(CNCC(F)F)Cn2nc3c(c2C1=O)CN(C(=O)Nc1ccc(F)c(C(F)(F)F)c1F)CC3` (single isomer, unassigned) [Compound 131_E1, (R*)—N-(2,4-difluoro-3-(trifluoromethyl)phenyl)-8-(((2,2-difluoroethyl)amino)methyl)-10-methyl-11-oxo-1,3,4,7,8,9,10,11-octahydro-2H-pyrido[4′,3′:3,4]pyrazolo[1,5-a][1,4]diazepine-2-carboxamide], for which the EC50 was 100 to 500 nM.
In the case of `CN1CCC(CO)n2nc3c(c2C1=O)CN(C(=O)Nc1ccc(F)c(Cl)c1)CC3` (stereo not drawn) [Compound 114, N-(3-chloro-4-fluorophenyl)-7-(hydroxymethyl)-10-methyl-11-oxo-1,3,4,7,8,9,10,11-octahydro-2H-pyrido[4′,3′:3,4]pyrazolo[1,5-a][1,4]diazepine-2-carboxamide], the concentration for a half-maximal effect (EC50) lay within 1 to 100 nM.
Still for that read-out and setting: the same measure for `C[C@@H]1Cc2nn3c(c2CN1C(=O)Nc1ccc(F)c(C(F)(F)F)c1)C(=O)N(C)C[C@H](COCC(F)F)C3` [Compound 135_D2, (3R,8S)-8-((2,2-difluoroethoxy)methyl)-N-(4-fluoro-3-(trifluoromethyl)phenyl)-3,10-dimethyl-11-oxo-1,3,4,7,8,9,10,11-octahydro-2H-pyrido[4′,3′:3,4]pyrazolo[1,5-a][1,4]diazepine-2-carboxamide]: 1 to 100 nM; for `C[C@@H]1Cc2nn3c(c2CN1C(=O)Nc1ccc(F)c(C#N)c1)C(=O)N(C)CC1(CC(F)C1)C3` (stereo partly drawn) [Compound 142, (R)-N-(3-Cyano-4-fluorophenyl)-3-fluoro-3′,10′-dimethyl-11′-oxo-1′,3′,4′,9′,10′,11′-hexahydro-2′H,7′H-spiro[cyclobutane-1,8′-pyrido[4′,3′:3,4]pyrazolo[1,5-a][1,4]diazepine]-2′-carboxamide]: 1 to 100 nM.
The same measure, in the same setting: the value for `CN1CC(CCO)Cn2nc3c(c2C1=O)CN(C(=O)Nc1ccc(F)c(Cl)c1)CC3` (stereo not drawn) [Compound 029] was 100 to 500 nM; that for `CN1CC(F)Cn2nc3c(c2C1=O)CN(C(=O)Nc1ccc(F)c(Cl)c1)CC3` (stereo not drawn) [Compound 006, N-(3-chloro-4-fluorophenyl)-8-fluoro-10-methyl-11-oxo-1,3,4,7,8,9,10,11-octahydro-2H-pyrido[4′,3′:3,4]pyrazolo[1,5-a][1,4]diazepine-2-carboxamide] was 1 to 100 nM.
For the compound `C[C@@H]1Cc2nn3c(c2CN1C(=O)Nc1ccc(F)c(Cl)c1)C(=O)N(CC(C)(C)O)CCC3` [Compound 048], the EC50 was 100 to 500 nM.
Same read-out and setting: the same measure for `C[C@@H]1Cc2nn3c(c2CN1C(=O)Nc1ccc(F)c(C#N)c1)C(=O)N(CC(F)F)CCC3` [Compound 076, (R)—N-(3-cyano-4-fluorophenyl)-10-(2,2-difluoroethyl)-3-methyl-11-oxo-1,3,4,7,8,9,10,11-octahydro-2H-pyrido[4′,3′:3,4]pyrazolo[1,5-a][1,4]diazepine-2-carboxamide]: 1 to 100 nM.
The same measure, in the same setting: the value for `CN1CC(CO)(CC(F)F)Cn2nc3c(c2C1=O)CN(C(=O)Nc1ccc(F)c(Cl)c1)CC3` (stereo not drawn) [Compound 091, N-(3-chloro-4-fluorophenyl)-8-(2,2-difluoroethyl)-8-(hydroxmethyl)-10-methyl-11-oxo-1,3,4,7,8,9,10,11-octahydro-2H-pyrido[4′,3′:3,4]pyrazolo[1,5-a][1,4]diazepine-2-carboxamide] was 100 to 500 nM.
On the same count and under the same terms, the same measure for `CN1CCCn2nc3c(c2C1=O)CN(C(=O)Nc1ccc(F)c(Cl)c1)CC3` [Compound 015, N-(3-chloro-4-fluoro-phenyl)-10-methyl-11-oxo-1,3,4,7,8,9-hexahydropyrido [2,3]pyrazolo[2,4-b][1,4]diazepine-2-carboxamide]: 1 to 100 nM.
Take `C[C@@H]1Cc2nn3c(c2CN1C(=O)Nc1ccc(F)c(Br)c1)C(=O)N(C)CC(CO)C3` (single isomer, unassigned) [Compound 086_D1, (3R,8S*)—N-(3-bromo-4-fluorophenyl)-8-(hydroxymethyl)-3,10-dimethyl-11-oxo-1,3,4,7,8,9,10,11-octahydro-2H-pyrido[4′,3′:3,4]pyrazolo[1,5-a][1,4]diazepine-2-carboxamide]: the half-maximal effective concentration (EC50) lay in the range of 1 to 100 nM.
Still for that read-out and setting: the same measure for `CN1CC(CNCC(F)F)Cn2nc3c(c2C1=O)CN(C(=O)Nc1ccc(F)c(C#N)c1)CC3` (single isomer, unassigned) [Compound 118_E1, (R*)—N-(3-cyano-4-fluorophenyl)-8-(((2,2-difluoroethyl)amino)methyl)-10-methyl-11-oxo-1,3,4,7,8,9,10,11-octahydro-2H-pyrido[4′,3′:3,4]pyrazolo[1,5-a][1,4]diazepine-2-carboxamide]: 100 to 500 nM; for `CC1CN(C)C(=O)c2c3c(nn2C1)CCN(C(=O)Nc1ccc(F)c(Cl)c1)C3` (stereo not drawn) [Compound 014, N-(3-chloro-4-fluoro-phenyl)-8,10-dimethyl-11-oxo-1,3,4,7,8,9-hexahydropyrido[2,3]pyrazolo[2,4-b][1,4]diazepine-2-carboxamide]: 1 to 100 nM.
Still for that read-out and setting: the same measure for `CCC(O)C1CN(C)C(=O)c2c3c(nn2C1)CCN(C(=O)Nc1ccc(F)c(Br)c1)C3` [Compound 102_E1, (R*)—N-(3-bromo-4-fluorophenyl)-8-((S)-1-hydroxypropyl)-10-methyl-11-oxo-1,3,4,7,8,9,10,11-octahydro-2H-pyrido[4′,3′:3,4]pyrazolo[1,5-a][1,4]diazepine-2-carboxamide]: 1 to 100 nM.
Same read-out and setting: the value for `CN1CC(CN2CCOCC2)Cn2nc3c(c2C1=O)CN(C(=O)Nc1ccc(F)c(Cl)c1)CC3` (stereo not drawn) [Compound 063, N-(3-chloro-4-fluorophenyl)-10-methyl-8-(morpholinomethyl)-11-oxo-1,3,4,7,8,9,10,11-octahydro-2H-pyrido[4′,3′:3,4]pyrazolo[1,5-a][1,4]diazepine-2-carboxamide] was 1 to 100 nM.
In the case of `CCC(O)C1CN(C)C(=O)c2c3c(nn2C1)CCN(C(=O)Nc1ccc(F)c(Cl)c1F)C3` (single isomer, unassigned) [Compound 100_E1, (R*)—N-(3-chloro-2,4-difluorophenyl)-8-((S*)-1-hydroxypropyl)-10-methyl-11-oxo-1,3,4,7,8,9,10,11-octahydro-2H-pyrido[4′,3′:3,4]pyrazolo[1,5-a][1,4]diazepine-2-carboxamide], the EC50 fell in the range of 1 to 100 nM.

Values taken from US10975077B2 (Novira Therapeutics, Inc., priority 2016, dated 2021).
